In ChEMBL document CHEMBL1151240, “A new dimension to the biosynthetic products isolated from the sponge Negombata magnifica” (2004) one finds Activity data, which are given here for five compounds.

For this assay, the system named is A10. As to the kind of experiment: Disruption of actin cytoskeleton in rat A10 cells upto 10 ug/ml by rhodamine-phalloidin assay. Format: functional.

Activity calls are given as the source filed them. No cut-off for these calls is given here.

On to `C/C(=C/C(=O)O)CC/C=C\[C@@H](C)CC[C@@H]1CC=CC(=O)O1`, for which the outcome was inactive. `CO[C@]1([C@@H]2CSC(=O)N2)C[C@H]2C[C@@H](CC[C@H](C)/C=C\CC/C(C)=C\C(=O)O2)O1`: the outcome was inactive. In turn, `C/C1=C/C(=O)O[C@@H]2C[C@@H](CC[C@H](C)/C=C\CC1)O[C@@](O)([C@H]1CSC(=O)N1)C2` [16-EPI-LATRUNCULIN B] displayed an Activity of 5 µg/mL. Under `C/C1=C/C(=O)O[C@@H]2C[C@@H](CC[C@H](C)/C=C\C=C\CC1)O[C@@](O)([C@@H]1CSC(=O)N1)C2` [LATRUNCULIN A] stands 0.5 µg/mL; under `C/C1=C/C(=O)O[C@@H]2C[C@@H](CC[C@H](C)/C=C\CC1)O[C@@](O)([C@@H]1CSC(=O)N1)C2` [LATRUNCULIN B], 0.5 µg/mL.
